# Data from patent US10253052B2, “HBED-bisphosphonates, radiometal conjugates and their use as theranostic agents” (Five Eleven Pharma Inc., priority 2015, dated 2019).
# Values joined by “and” are separate entries in the source; they are usually repeats but may differ in a detail not shown here. Equal entries are not always repeated. Marks after values point to notes of the source that are not given here.
# How the values were obtained:
# [1] = In vivo biodistribution in mice; design: species or system normal CD-1 male mice; conditions: for bone to blood ratio / bone to muscle ratio / Biodistribution: Blood / Biodistribution: Bone / Biodistribution: Brain / Biodistribution: Heart / Biodistribution: Kidney / Biodistribution: Liver / Biodistribution: Lung / Biodistribution: Muscle / Biodistribution: Pancreas / Biodistribution: Skin / Biodistribution: Spleen: iv
# Experimental: Biodistribution experiments were performed by intravenously administering ^68Ga labeled 1a-h, 2, 3, BPAMD, and [^18F]NaF into normal, healthy male CD-1 mice (25-30 g). The injection activity was 20-30 μCi/animal. […] Organs of interest were harvested, weighed, and counts of radioactivity were measured by a gamma counter. The biodistribution of each sample was calculated as a percentage of the injected dose per gram of wet tissue weight (% ID/g). Tibia and femur bones were harvested and counted as bone samples.
# [2] = In vitro binding to hydroxyapatite; conditions: 20 mg hydroxyapatite in saline, 10 min at room temperature
# Experimental: Hydroxyapatite (20 mg, Sigma-Aldrich, reagent grade powder) was incubated in isotonic saline (1 mL) for 24 h. Subsequently, either ^68Ga labeled 1a-h, 2, 3, BPAMD, or [^18F]NaF (1 μCi) was added to the hydroxyapatite suspension. After vortexing for 10 seconds, the suspension was incubated for 10 min at room temperature. The samples were then centrifuged at 10,000 rpm for 3 min and the supernatant was removed. The hydroxyapatite fraction was washed twice with saline (1 mL). Radioactivity in the combined supernatants and the hydroxyapatite fraction was measured using a gamma counter. The proportion of the ^68Ga complex binding to hydroxyapatite was determined as percent of ^68Ga absorbed to hydroxyapatite.
smiles,measurement,setting,value
O=C([O-])CN(CCN(CC(=O)[O-])Cc1cc(CCC(=O)NC(P(=O)(O)O)P(=O)(O)O)ccc1[O-])Cc1cc(CCC(=O)NCC(=O)O)ccc1[O-].[68Ga+3] [[^68Ga]1c],bone to blood ratio,[1]; 2 min,0.7
same,bone to muscle ratio,[1]; 2 min,5
same,Biodistribution: Blood,[1]; 2 min post injection,11.7 ± 0.55 % dose/g
same,Biodistribution: Bone,[1]; 2 min post injection,8.40 ± 1.32 % dose/g
same,Biodistribution: Brain,[1]; 2 min post injection,0.27 ± 0.06 % dose/g
same,Biodistribution: Heart,[1]; 2 min post injection,4.57 ± 0.45 % dose/g
same,Biodistribution: Kidney,[1]; 2 min post injection,27.7 ± 5.46 % dose/g
same,Biodistribution: Liver,[1]; 2 min post injection,4.78 ± 0.18 % dose/g
same,Biodistribution: Lung,[1]; 2 min post injection,5.66 ± 0.24 % dose/g
same,Biodistribution: Muscle,[1]; 2 min post injection,1.68 ± 0.11 % dose/g
same,Biodistribution: Pancreas,[1]; 2 min post injection,1.99 ± 0.23 % dose/g
same,Biodistribution: Skin,[1]; 2 min post injection,2.05 ± 0.16 % dose/g
same,Biodistribution: Spleen,[1]; 2 min post injection,3.41 ± 0.08 % dose/g
same,bone to blood ratio,[1]; 30 min,8
same,bone to muscle ratio,[1]; 30 min,49
same,Biodistribution: Blood,[1]; 30 min (0.5 hr) post injection,1.34 ± 0.32 % dose/g
same,Biodistribution: Bone,[1]; 30 min (0.5 hr) post injection,11.3 ± 0.26 % dose/g
same,Biodistribution: Brain,[1]; 30 min (0.5 hr) post injection,0.05 ± 0.02 % dose/g
same,Biodistribution: Heart,[1]; 30 min (0.5 hr) post injection,0.49 ± 0.07 % dose/g
same,Biodistribution: Kidney,[1]; 30 min (0.5 hr) post injection,2.58 ± 0.05 % dose/g
same,Biodistribution: Liver,[1]; 30 min (0.5 hr) post injection,2.21 ± 0.27 % dose/g
same,Biodistribution: Lung,[1]; 30 min (0.5 hr) post injection,0.84 ± 0.11 % dose/g
same,Biodistribution: Muscle,[1]; 30 min (0.5 hr) post injection,0.23 ± 0.05 % dose/g
same,Biodistribution: Pancreas,[1]; 30 min (0.5 hr) post injection,0.39 ± 0.05 % dose/g
same,Biodistribution: Skin,[1]; 30 min (0.5 hr) post injection,0.53 ± 0.18 % dose/g
same,Biodistribution: Spleen,[1]; 30 min (0.5 hr) post injection,0.97 ± 0.01 % dose/g
same,bone to blood ratio,[1]; 60 min,23
same,bone to muscle ratio,[1]; 60 min,102
same,Biodistribution: Blood,[1]; 60 min (1 hr) post injection,0.64 ± 0.17 % dose/g
same,Biodistribution: Bone,[1]; 60 min (1 hr) post injection,14.7 ± 0.66 % dose/g
same,Biodistribution: Brain,[1]; 60 min (1 hr) post injection,0.03 ± 0.01 % dose/g
same,Biodistribution: Heart,[1]; 60 min (1 hr) post injection,0.24 ± 0.08 % dose/g
same,Biodistribution: Kidney,[1]; 60 min (1 hr) post injection,1.88 ± 0.10 % dose/g
same,Biodistribution: Liver,[1]; 60 min (1 hr) post injection,1.85 ± 0.11 % dose/g
same,Biodistribution: Lung,[1]; 60 min (1 hr) post injection,0.42 ± 0.08 % dose/g
same,Biodistribution: Muscle,[1]; 60 min (1 hr) post injection,0.14 ± 0.01 % dose/g
same,Biodistribution: Pancreas,[1]; 60 min (1 hr) post injection,0.23 ± 0.02 % dose/g
same,Biodistribution: Skin,[1]; 60 min (1 hr) post injection,0.33 ± 0.03 % dose/g
same,Biodistribution: Spleen,[1]; 60 min (1 hr) post injection,0.74 ± 0.10 % dose/g
same,bone to blood ratio,[1]; 120 min,39
same,bone to muscle ratio,[1]; 120 min,103
same,Biodistribution: Blood,[1]; 120 min post injection,0.41 ± 0.07 % dose/g
same,Biodistribution: Bone,[1]; 120 min post injection,16.1 ± 2.71 % dose/g
same,Biodistribution: Brain,[1]; 120 min post injection,0.02 ± 0.01 % dose/g
same,Biodistribution: Heart,[1]; 120 min post injection,0.19 ± 0.03 % dose/g
same,Biodistribution: Kidney,[1]; 120 min post injection,2.05 ± 0.27 % dose/g
same,Biodistribution: Liver,[1]; 120 min post injection,1.99 ± 0.09 % dose/g
same,Biodistribution: Lung,[1]; 120 min post injection,0.31 ± 0.06 % dose/g
same,Biodistribution: Muscle,[1]; 120 min post injection,0.16 ± 0.01 % dose/g
same,Biodistribution: Pancreas,[1]; 120 min post injection,0.20 ± 0.03 % dose/g
same,Biodistribution: Skin,[1]; 120 min post injection,0.31 ± 0.04 % dose/g
same,Biodistribution: Spleen,[1]; 120 min post injection,0.71 ± 0.29 % dose/g
same,Hydroxyapatite Binding (%),[2],89.1 ± 1.0%
O=C([O-])CN1CCN(CC(=O)[O-])CCN(CC(=O)NCCNC(=O)CCc2ccc(O)c(CN(CCN(CC(=O)O)Cc3cc(CCC(=O)NC(P(=O)(O)O)P(=O)(O)O)ccc3O)CC(=O)O)c2)CCN(CC(=O)[O-])CC1.[177Lu+3] [[^177Lu]1h],bone to blood ratio,[1]; 30 min,24
same,bone to muscle ratio,[1]; 30 min,41
same,Biodistribution: Blood,[1]; 30 min (0.5 hr) post injection,0.54 ± 0.11 % dose/g
same,Biodistribution: Bone,[1]; 30 min (0.5 hr) post injection,12.4 ± 1.19 % dose/g
same,Biodistribution: Brain,[1]; 30 min (0.5 hr) post injection,0.03 ± 0.01 % dose/g
same,Biodistribution: Heart,[1]; 30 min (0.5 hr) post injection,0.23 ± 0.05 % dose/g
same,Biodistribution: Kidney,[1]; 30 min (0.5 hr) post injection,1.21 ± 0.94 % dose/g
same,Biodistribution: Liver,[1]; 30 min (0.5 hr) post injection,0.20 ± 0.03 % dose/g
same,Biodistribution: Lung,[1]; 30 min (0.5 hr) post injection,1.35 ± 1.52 % dose/g
same,Biodistribution: Muscle,[1]; 30 min (0.5 hr) post injection,0.39 ± 0.24 % dose/g
same,Biodistribution: Pancreas,[1]; 30 min (0.5 hr) post injection,0.15 ± 0.03 % dose/g
same,Biodistribution: Skin,[1]; 30 min (0.5 hr) post injection,0.41 ± 0.12 % dose/g
same,Biodistribution: Spleen,[1]; 30 min (0.5 hr) post injection,0.15 ± 0.04 % dose/g
same,bone to blood ratio,[1]; 60 min,97
same,bone to muscle ratio,[1]; 60 min,200
same,Biodistribution: Blood,[1]; 60 min (1 hr) post injection,0.12 ± 0.02 % dose/g
same,Biodistribution: Bone,[1]; 60 min (1 hr) post injection,11.4±0.3 % dose/g and 11.4 ± 0.31 % dose/g
same,Biodistribution: Brain,[1]; 60 min (1 hr) post injection,0.01 ± 0.00 % dose/g
same,Biodistribution: Heart,[1]; 60 min (1 hr) post injection,0.08 ± 0.02 % dose/g
same,Biodistribution: Kidney,[1]; 60 min (1 hr) post injection,1.48 ± 0.60 % dose/g
same,Biodistribution: Liver,[1]; 60 min (1 hr) post injection,0.13 ± 0.03 % dose/g
same,Biodistribution: Lung,[1]; 60 min (1 hr) post injection,0.20 ± 0.05 % dose/g
same,Biodistribution: Muscle,[1]; 60 min (1 hr) post injection,0.06 ± 0.01 % dose/g
same,Biodistribution: Pancreas,[1]; 60 min (1 hr) post injection,0.07 ± 0.02 % dose/g
same,Biodistribution: Skin,[1]; 60 min (1 hr) post injection,0.11 ± 0.03 % dose/g
same,Biodistribution: Spleen,[1]; 60 min (1 hr) post injection,0.07 ± 0.01 % dose/g
same,Biodistribution: Blood,[1]; 6 hr post injection,0.016 ± 0.007 % dose/g
same,Biodistribution: Bone,[1]; 6 hr post injection,12.7 ± 0.90 % dose/g
same,Biodistribution: Brain,[1]; 6 hr post injection,0.003 ± 0.003 % dose/g
same,Biodistribution: Heart,[1]; 6 hr post injection,0.024 ± 0.005 % dose/g
same,Biodistribution: Kidney,[1]; 6 hr post injection,0.686 ± 0.191 % dose/g
same,Biodistribution: Liver,[1]; 6 hr post injection,0.088 ± 0.021 % dose/g
same,Biodistribution: Lung,[1]; 6 hr post injection,0.062 ± 0.006 % dose/g
same,Biodistribution: Muscle,[1]; 6 hr post injection,0.031 ± 0.011 % dose/g
same,Biodistribution: Pancreas,[1]; 6 hr post injection,0.021 ± 0.001 % dose/g
same,Biodistribution: Skin,[1]; 6 hr post injection,0.052 ± 0.006 % dose/g
same,Biodistribution: Spleen,[1]; 6 hr post injection,0.038 ± 0.005 % dose/g
same,bone to blood ratio,[1]; 6 hr post-injection,909^a
same,bone to muscle ratio,[1]; 6 hr post-injection,454^a
same,Biodistribution: Blood,[1]; 24 hr post injection,0.003 ± 0.001 % dose/g
same,Biodistribution: Bone,[1]; 24 hr post injection,11.6 ± 1.14 % dose/g
same,Biodistribution: Brain,[1]; 24 hr post injection,0.014 ± 0.016 % dose/g
same,Biodistribution: Heart,[1]; 24 hr post injection,0.014 ± 0.003 % dose/g
same,Biodistribution: Kidney,[1]; 24 hr post injection,0.411 ± 0.125 % dose/g
same,Biodistribution: Liver,[1]; 24 hr post injection,0.068 ± 0.013 % dose/g
same,Biodistribution: Lung,[1]; 24 hr post injection,0.040 ± 0.003 % dose/g
same,Biodistribution: Muscle,[1]; 24 hr post injection,0.021 ± 0.005 % dose/g
same,Biodistribution: Pancreas,[1]; 24 hr post injection,0.013 ± 0.005 % dose/g
same,Biodistribution: Skin,[1]; 24 hr post injection,0.042 ± 0.008 % dose/g
same,Biodistribution: Spleen,[1]; 24 hr post injection,0.034 ± 0.005 % dose/g
same,bone to blood ratio,[1]; 24 hr post-injection,4312^b^
same,bone to muscle ratio,[1]; 24 hr post-injection,572^b
same,"Biodistribution result in words (organ uptake, retention, excretion)",[1]; normal mice after iv injection,"excellent bone uptake, retention in bone and fast kidney excretion"
same,Hydroxyapatite Binding (%),[2],90.9 ± 1.1%
